Key:
[1] = HUVEC viability, WST-1 assay; assay type: cell-based, human; conditions: human, HUVEC cells; WST-1, 24 h, % of control, mean ± SD (n = 6–8)
Experimental: (§1) As a third in vitro toxicity study in the human blood circulation system, the effects of FA, D1, and D2 on the viability of human umbilical vein endothelial cells (HUVECs; RRID CVCL_2959; Lonza, Italy; Cat. no. CC-2517) were determined using the WST-1 assay (Takara, Takara Bio Europe, Europe, Saint-Germain-en-Laye, France), according to the previously published protocol.[32] Briefly, the cells were cultured according to the manufacturer’s guidelines with the following ingredients: EGM-2-medium + bullet kit (Lonza, Clonetics, Italy), accutase (Sigma-Aldrich, Germany), and HEPES-buffered saline solution (Lonza, Basel, Switzerland). For the assay, the cells were seeded at the density of 7 500 HUVECs per well on 96-well plates and cultured for 24 h to obtain 70% confluency. Subsequently, the cells were treated with studied compounds in multiplicate (n = 6–8) at the concentration of 0.1–100 μM in the growth medium for 24 h (37 °C, 5% CO2). Cells with untreated growth medium represented 100% viability, whereas cells treated with medium containing 0.5% (v/v) methanol served as a negative control for drug solvent. After treating cells for 24 h, medium was removed, the cells were washed with the culture medium (100 μl/well), and 100 μL of WST-1 reagent dissolved in culture medium was added into each well. The plates were incubated at 37 °C with 5% CO2 for 2 h, after which absorbance values were measured at the 450 nm wavelength using a microplate reader (iMARK, Bio-Rad). Additionally, the effects of treatments on HUVEC morphology were examined microscopically using a phase-contrast Opta-Tech inverted microscope equipped with OptaView 7 software (Opta-Tech, Warsaw, Poland) for image analysis.

HUVECs = test: HUVEC morphology, phase-contrast microscopy; assay type: cell-based, human; conditions: 24 h incubation
Experimental: as §1

[2] = mice, cited from earlier work; for AUCtotal plasma of released FA / AUCu, plasma of released FA / Cmax, u plasma of released FA: FA released from the dosed derivative; for AUCtotal plasma of released FA / AUCu, plasma of released FA / Cmax, u plasma of released FA / tmax plasma / Cmax / AUCu, plasma / Cmax, u plasma: 25 μmol/kg i.p.; for AUCtotal plasma: 25 μmol/kg i.p. bolus; for peak concentration in plasma: after a high bolus dose (25 μmol/kg i.p.); for Cmax: read-out: Cmax plasma; for AUCu, plasma / Cmax, u plasma: unbound

Row | HUVEC morphology at 50 μM (HUVECs) | SMILES | viability at 24 h, 50 µM [1] | viability at 24 h, 100 µM [1] | HUVEC morphology at 100 μM (HUVECs) | HUVEC morphology at 25–50 μM (HUVECs) | AUCtotal plasma of released FA [2] | AUCu, plasma of released FA [2] | Cmax, u plasma of released FA [2] | AUCtotal plasma [2] | tmax plasma [2] | peak concentration in plasma [2] | Cmax [2] | AUCu, plasma [2] | Cmax, u plasma [2]
1 |  | COc1cc(C=CC(=O)NCc2cccc(CC(N)C(=O)O)c2)ccc1O (stereo not shown) [derivative 1] | 89 ± 7.27% | 80.7 ± 4.26% | slightly more rounded, bright dead cells were observed | did not cause significant changes in HUVEC morphology | 507 nmol·min/mL | 54 nmol·min/mL | 0.3 µM | 1042 nmol·min/mL | 10 min | 41.9 µM | 41.9 µM | 262 nmol·min/mL | 10.5 µM
2 | first brighter cells appearing | COc1cc(/C=C/C(=O)Nc2cccc(C[C@H](N)C(=O)O)c2)ccc1O [derivative 2] | 73.5 ± 14.7% | 60.3 ± 16.9% | reduced the number of viable cells and cell density as well as caused an irregular shape with cytoplasm leakage |  | 75 nmol·min/mL | 8 nmol·min/mL | 0.2 µM | 463 nmol·min/mL | 10 (released 10) min |  | 21.1 µM | 40 nmol·min/mL | 1.8 µM
3 |  | COc1cc(C=CC(=O)O)ccc1O [ferulic acid, 4-hydroxy-3-methoxycinnamic acid] |  | 62.6 ± 15% | more elongated cells were seen | did not change cell morphology |  |  |  | 591 nmol·min/mL | 10 min | 33.2 µM | 33.2 µM | 63 nmol·min/mL | 3.6 µM

Reference: publication PMC9644403, “L-type Amino Acid Transporter 1 Utilizing Ferulic Acid Derivatives Show Increased Drug Delivery in the Mouse Pancreas Along with Decreased Lipid Peroxidation and Prostaglandin Production” (Molecular Pharmaceutics, 2022)
